This is an account of results in paper PMC3006138, “Fexinidazole – A New Oral Nitroimidazole Drug Candidate Entering Clinical Development for the Treatment of Sleeping Sickness” (PLoS Neglected Tropical Diseases, 2010).

For data set [1], the system named is Salmonella typhimurium. Briefly: Ames test. Format: cell-based. The following applies: for bacterial mutagenicity: standard strains, with and without S9. Here is the method:
To evaluate bacterial mutagenicity, a full Ames test was carried out on fexinidazole and fexinidazole sulfone using the five strains of Salmonella typhimurium recommended by the relevant ICH regulatory guideline, namely TA1535, TA1537, TA98, TA100, and TA102, as well as the corresponding nitroreductase-deficient strains, [48]. Standard bacterial plate incorporation assays were carried out, essentially as described by Maron and Ames. Tests on fexinidazole were carried out with and without rat liver post-mitochondrial fraction plus co-factors (S9 mix) to provide a mammalian metabolic activation system. The S9 fraction was prepared from Spague-Dawley rats pretreated with the mixed cytochrome P 450 enzyme inducer Aroclor 1254. Tests on fexinidazole sulfone were carried out only in the absence of rat liver S9 (as this is a metabolite). After incubation at 37°C for three days, plates were scored for mutant colonies using a Colony Counter plate reader.
(In general: The Ames test detects mutagens through reverse mutation in bacteria.)

Data set [2] is described as follows: Chemical stability in incubation medium alone. Format: physicochemical. The following applies: fexinidazole 10 µM, Leibovitz medium alone, 120 min. How it is done: Incubations were performed in duplicate in a 48-well plate under shaking. Sampling was performed using an automatic liquid handling system (Multiprobe II EX, Packard). […] in acetonitrile (internal standard) were added, and samples centrifuged at 2000 rpm for 20 min. The supernatant was analyzed by LC-MS/MS. The chemical stability of fexinidazole was checked by incubating the compound at 37°C in the medium alone at t = 0 and 120 minutes. For the determination of phase I and phase II activity of hepatocytes, 7-ethoxycoumarin (7- […] incubated under the same conditions as fexinidazole. Aliquots of incubates were taken at 0, 10, 20, 30, 60 and 120 minutes and processed as fexinidazole samples. […] Metabolite Profile Study […] mouse, rat, dog, monkey and human hepatocytes (300000 cells/mL for the mouse and 1 million cells/mL for the other species) in a final incubation volume of 2 mL Leibovitz L-15 medium, at 37°C. Aliquots of the incubation samples were taken at t = 0, 30 and 120 minutes; the metabolism was stopped by the addition of an equal volume of cold acetonitrile and the samples centrifuged at 1500 rpm for 20 min. The supernatant was stored at -20°C until analysis. Control incubations were performed with the compound in the medium alone for 120 minutes. […] Nerviano Medical Sciences […] For the determination of phase I and phase II activities of hepatocytes, 7-ethoxycoumarin (7- […] incubated under the same conditions as fexinidazole. Aliquots of incubates were taken at 0, […] 7.5.2. Metabolite Profile Study […] pooled human hepatocytes (1 million cells/mL) in a final incubation volume of 2 mL Leibovitz L-15 medium, at 37°C. Aliquots of the incubation samples were taken at t = 0, 30 and 120 minutes; the metabolism was stopped by the addition of an equal volume of cold acetonitrile and the samples centrifuged at 1100 rpm for 20 min. The supernatant was stored at -20°C until analysis. Control incubations were performed with the compound in the medium alone for 120 minutes. […] Valco Divert Valve Step Total time (min) Position […]

Data set [3] is described as follows: Hepatocyte intrinsic clearance and metabolite profile. The format is in vitro ADME, cynomolgus monkey. The following applies: male, cynomolgus monkey, cryopreserved hepatocytes, 1 µM. Here is the method:
Fexinidazole was incubated with cryopreserved hepatocytes from male CD-1 mice, male Sprague Dawley rats, male beagle dogs, male cynomolgus monkeys, and from pooled white or African-American human donor samples (purchased commercially), at concentrations of 1 µM and 10 µM. […] The incubated samples were analyzed by LC-MS after extraction into acetonitrile.
A quality control analysis of fexinidazole was performed via 1H-NMR in DMSO and LC- […]
provided by the Swiss Tropical Institute (Basel, Switzerland).
Reagents and solvents were of analytical grade and obtained from Sigma-Aldrich (St. Louis, […]
Cryopreserved hepatocytes from the male CD1 mouse, lot CSI; male Sprague Dawley rat, lot LPL; male beagle dog, lot BWX; male cynomolgus monkey, lot EHH; and pooled human samples, lot MJI, were purchased from In Vitro Technologies Inc (Baltimore, Maryland, […]
5.4. In vitro Incubations
On the day of the experiment a 10 mM stock solution of fexinidazole in DMSO was prepared and, within 3 hours, aliquots of this freshly prepared solution, after suitable dilution, were added to the incubation matrix, to reach fexinidazole final concentrations of 1 and 10 µM. The final percentage of DMSO was 0.01% in the incubation samples for the […]
On the day of experiment, the cryopreserved hepatocytes were thawed following the detailed instructions provided by the supplier.
The number of viable cells was determined using a Trypan Blue exclusion method.
5.4.1. Intrinsic Clearance Study […]
µM with mouse, rat, dog, monkey and human hepatocytes (300000 cells/mL for the mouse and 1 million cells/mL for the other species) in a final incubation volume of 0.75 mL […]
Incubations were performed in duplicate in a 48-well plate under shaking. Sampling was performed using an automatic liquid handling system (Multiprobe II EX, Packard). At 0, 1, 5, 10, 15, 20, 30, 60 and 120 minutes, 50 µL aliquots of the incubates were taken, then 80 µL of ice-cold acetonitrile and 20 µL of 1 µM warfarin in acetonitrile (internal standard) were added, and samples centrifuged at 2000 rpm for 20 min. The supernatant was analyzed by LC-MS/MS. […]
the medium alone at t = 0 and 120 minutes.
For the determination of phase I and phase II activity of hepatocytes, 7-ethoxycoumarin (7-EC) 1 µM, and 7-hydroxycoumarin (7-HC) 30 µM were used as positive controls and incubated under the same conditions as fexinidazole. Aliquots of incubates were taken at 0, 10, 20, 30, 60 and 120 minutes and processed as fexinidazole samples.
5.4.2. Metabolite Profile Study
For metabolite profiling, fexinidazole was incubated at a concentration of 10 µM with mouse, rat, dog, monkey and human hepatocytes (300000 cells/mL for the mouse and 1 million cells/mL for the other species) in a final incubation volume of 2 mL Leibovitz L-15 […]
Aliquots of the incubation samples were taken at t = 0, 30 and 120 minutes; the metabolism was stopped by the addition of an equal volume of cold acetonitrile and the samples centrifuged at 1500 rpm for 20 min. The supernatant was stored at -20°C until analysis. Control incubations were performed with the compound in the medium alone […]
5.5. Analysis of Samples for Intrinsic Clearance Determination
The analysis of the samples for intrinsic clearance determination was performed by an LC-MS/MS method, using the following conditions:
HPLC Equipment and Conditions
HPLC system Agilent 1100 binary pump (Agilent, Palo Alto, USA)
Autosampler CTC Pal (Alfatech, San Jose, USA)
Analytical column Guard Column SB-C8 4.6 x 12.5 mm, 5 µm (Zorbax)
Column temperature ambient
Mobile phase A 10 mM ammonium formate pH 4.0: acetonitrile (95:5, v:v)
Mobile phase B 10 mM ammonium formate pH 4.0: acetonitrile (5:95, v:v) […]
Gradient conditions Step Total time (min) flow (µL/min) %A % B […]
MS Equipment and Conditions
Mass spectrometer API 4000 Triple Quadrupole (MDS-Sciex, Toronto, […]
Source Turbo Ion Spray (TIS)
Ion mode Positive for fexinidazole and 7-EC.
Negative for 7-HC, 7-HC sulphate and 7-HC glucuronide.

“Also recorded” adds a separate entry of the source.

The term half-life denotes the time needed for the level to fall by half in the phase considered.

On to `Cn1c([N+](=O)[O-])cnc1COc1ccc(S(C)(=O)=O)cc1` [Fexinidazole sulfone], for which the bacterial mutagenicity result in data set [1] is on record as “gave similar results to fexinidazole”.

Regarding `Cn1c([N+](=O)[O-])cnc1COc1ccc([S+](C)[O-])cc1` (stereo not drawn) [Fexinidazole sulfoxide], in data set [2], the “% of total drug related material” value is reported as 18%.

Consider `CSc1ccc(OCc2ncc([N+](=O)[O-])n2C)cc1` [Fexinidazole, 1-methyl-2-((p-(methylthio)phenoxy)methyl)-5-nitroimidazole], for which the CLint scaled at 1 µM in data set [3] (read-out: CLint in vitro) is 390 L/h/kg. For the same compound, in data set [3] (cynomolgus), the half-life at 1 µM was 36 s. Further, the hepatocyte CLint at 1 µM in data set [3] (cynomolgus, read-out: CLint in vitro) is 1190 µL/min/1e6 cells. In addition, in data set [1] (nitroreductase-deficient Salmonella strains), the mutagenic activity result was “significantly reduced or abolished”. For the same compound, in data set [1], the bacterial mutagenicity entry was “elicited both frameshift and base substitution mutations; also recorded: mutagenic in the Ames test”. The “% of total drug related material” value in data set [2] is given as “about 84%”; in data set [2] (listed as P), 82%.
